Where two headings read alike, the source gives them in different places. Values belong to the compound of their own block, whether it stands above or below them.
Columns and labels:
[1] = Human microsome stability assay; type: in vitro ADME; settings: human liver microsomes, 1 μM test compound, 0.5 mg/mL microsomal protein, 37° C., pH 7.4, 0-30 minutes
Procedure: The human microsomal stability assay is used for early assessment of metabolic stability of a test compound in human liver microsomes.
Human liver microsomes (Cat. NO.: 452117, Corning, USA; Cat. NO.: H2610, Xenotech, USA) were preincubated with test compound for 10 minutes at 37° C. in 100 mM potassium phosphate buffer, pH 7.4. The reactions were initiated by adding NADPH regenerating system. The final incubation mixtures contained 1 μM test compound, 0.5 mg/mL liver microsomal protein, 1 mM MgCl2, 1 mM NADP, 1 unit/mL isocitric dehydrogenase and 6 mM isocitric acid in 100 mM potassium phosphate buffer, pH 7.4. After incubation times of 0, 3, 6, 9, 15 and 30 minutes at 37° C., 300 μL of cold ACN (including internal standard) was added to 100 μL incubation mixture to terminate the reaction. Following precipitation and centrifugation, the amount of compound remaining in the samples was determined by LC-MS/MS. Controls of no NADPH regenerating system at zero and 30 minutes were also prepared and analyzed.

[2] = tested on: HBeAg (surrogate marker for cccDNA) in HepDES19 cells; assay: Engineered HepDES19 primary screen assay (HBeAg ELISA); type: cell-based, HBV
Excerpt: The assay was employed to screen for novel cccDNA inhibitors. HepDES19 is a cccDNA-producing cell line. In this cell line, HBeAg in the cell culture supernatant as surrogate marker, as HBeAg production depends on cccDNA level and activity. HepDES19 is an engineered cell line which contains a 1.1 unit length HBV genome, and pgRNA transcription from the transgene is controlled by Tetracycline (Tet). In the absence of Tet, pgRNA transcription will be induced, but HBV e antigen (HBeAg) could not be produced from this pgRNA due to very short leader sequence before the HBeAg start codon and the start codon is disrupted. Only after cccDNA is formed, the missing leader sequence and start codon mutation would be restored from the 3′-terminal redundancy of pgRNA, and then HBeAg could be synthesized. Therefore, HBeAg could be used as a surrogate marker for cccDNA (Zhou, T. et al., Antiviral Res. (2006), 72(2), 116-124; Guo, H. et al., J. Virol. (2007), 81(22), 12472-12484).
HepDES19 cells were seeded at 2×10^6 cells per T150 flask and cultured with the culture medium (Dulbecco's Modified Eagle Medium: Nutrient Mixture F-12 [DMEM-F12, Gibco Cat. 11320-82], 10% Fetal Bovine Serum [FBS, Clontech Cat. 631101], 0.1 mM Non-Essential Amino Acids Solution [NEAA, Gibco Cat. 11140-050], 50 μg/mL Penicillin-Streptomycin [PS, Invitrogen Cat. 15140-163], 500 μg/mL Geneticin [G418, Invitrogen Cat. 10131-027]) containing 3 μg/mL Tet (Sigma, Cat. 87128) for 5 days. Cells were then seeded at 4×10^6 cells per T150 in the same culture medium as described above in the absence of Tet for 8 days. Cells were then harvested and frozen at density of 2×10^6 cells per mL. For compound testing, the frozen cells were thawed and seeded into 96-well plates at a density of 6×10^4 cells per well. At 24 hours after seeding, half log serial dilutions of compounds made with Dimethyl sulfoxide (DMSO, Sigma, Cat. D2650) were further diluted with the same culture medium as described above before they were added to the cells to reach desired final compound concentrations and 1% DMSO concentration. Plates were then incubated at 37° C. for another 5 days before measurement of HBeAg level and cell viability. […] HBeAg level were measured with enzyme-linked immunosorbent assay (ELISA) kit (Shanghai Kehua Diagnostic Medical Products Co., Ltd). Cell viability was assessed using Cell Counting Kit-8 (DonJindo, Cat. CK04-20). IC50 values were derived from the dose-response curve using 4 parameter logistic curve fit method.
The compounds of the present invention were tested for their capacity to inhibit extracellular HBeAg level as described herein.

[3] = Hepatitis B virus, HepDES19, 120 h, read-out: IC50 (HBeAg level, HepDES19 primary screen assay), HepDES19 cells, 5 days compound incubation, HBeAg ELISA

Compound: O=C(O)[C@@H]1CC[C@@H](Oc2cc(Br)ccc2-c2cc(=O)c3cccc(Cl)c3o2)C1 (relative stereo) [Example B028-B, Trans-3-[5-bromo-2-(8-chloro-4-oxo-chromen-2-yl)phenoxy]cyclopentanecarboxylic acid]
Clearance of Human microsome [1]: 9.98 mL/min/kg
IC50 [2, 3]: 0.213 µM

Compound: O=C(O)C1CCCN1C(=O)COc1cc(C(F)(F)F)ccc1-c1cc(=O)c2cccc(Cl)c2o1 (stereo in doubt) [Example A082, (2S)-1-[2-[2-(8-chloro-4-oxo-chromen-2-yl)-5-(trifluoromethyl)phenoxy]acetyl]pyrrolidine-2-carboxylic acid]
Clearance of Human microsome [1]: 6.15 mL/min/kg
IC50 ([2]; read-out: IC50 (HBeAg level, HepDES19 primary screen assay), HepDES19 cells, 5 days compound incubation, HBeAg ELISA): 1.19 µM

Compound: O=C(O)C1CC(OCCOc2ccccc2-c2cc(=O)c3cccc(Br)c3o2)C1 (stereo in doubt) [Example C046-A, Cis-3-[2-[2-(8-bromo-4-oxo-chromen-2-yl)phenoxy]ethoxy]cyclobutanecarboxylic acid]
Clearance of Human microsome [1]: 6.15 mL/min/kg
IC50 [2, 3]: 0.192 µM

Compound: O=C(O)CCOc1cc(C(F)(F)F)ccc1-c1cc(=O)c2cc(F)cc(Cl)c2o1 [Example A003, 3-[2-(8-chloro-6-fluoro-4-oxo-chromen-2-yl)-5-(trifluoromethyl)phenoxy]propanoic acid]
Clearance of Human microsome [1]: 6.15 mL/min/kg
IC50 [2, 3]: 0.362 µM

Compound: COc1cc(-c2cc(=O)c3cccc(Cl)c3o2)c(OCCC(=O)O)cc1C [Example A015, 3-[2-(8-chloro-4-oxo-chromen-2-yl)-4-methoxy-5-methyl-phenoxy]propanoic acid]
Clearance of Human microsome [1]: 6.15 mL/min/kg
IC50 [2, 3]: 11.1 µM

Compound: Cc1cc(Br)c(OCCC(=O)O)c(-c2cc(=O)c3cccc(Cl)c3o2)c1 [Example A018, 3-[2-bromo-6-(8-chloro-4-oxo-chromen-2-yl)-4-methyl-phenoxy]propanoic acid]
Clearance of Human microsome [1]: 6.15 mL/min/kg
IC50 [2, 3]: 3.32 µM

Compound: Cc1cc(OCCC(=O)O)c(-c2cc(=O)c3cccc(Cl)c3o2)cc1OC(F)(F)F [Example A019, 3-[2-(8-chloro-4-oxo-chromen-2-yl)-5-methyl-4-(trifluoromethoxy)phenoxy]propanoic acid]
Clearance of Human microsome [1]: 6.15 mL/min/kg
IC50 [2, 3]: 2.96 µM

Compound: Cc1cc(F)c(-c2cc(=O)c3cccc(Cl)c3o2)c(OCCC(=O)O)c1 [Example A021, 3-[2-(8-chloro-4-oxo-chromen-2-yl)-3-fluoro-5-methyl-phenoxy]propanoic acid]
Clearance of Human microsome [1]: 6.15 mL/min/kg
IC50 [2, 3]: 4.04 µM

Compound: O=C(O)CCOc1cc(C(F)(F)F)ccc1-c1cc(=O)c2ccc(F)c(Cl)c2o1 [Example A031, 3-[2-(8-chloro-7-fluoro-4-oxo-chromen-2-yl)-5-(trifluoromethyl)phenoxy]propanoic acid]
Clearance of Human microsome [1]: 6.15 mL/min/kg
IC50 [2, 3]: 0.377 µM

Compound: COc1ccc2c(=O)cc(-c3ccc(C(F)(F)F)cc3OCCC(=O)O)oc2c1Cl [Example A032, 3-[2-(8-chloro-7-methoxy-4-oxo-chromen-2-yl)-5-(trifluoromethyl)phenoxy]propanoic acid]
Clearance of Human microsome [1]: 6.15 mL/min/kg
IC50 [2, 3]: 13 µM

Compound: COc1cc(Cl)c2oc(-c3ccc(C(F)(F)F)cc3OCCC(=O)O)cc(=O)c2c1 [Example A033, 3-[2-(8-chloro-6-methoxy-4-oxo-chromen-2-yl)-5-(trifluoromethyl)phenoxy]propanoic acid]
Clearance of Human microsome [1]: 6.15 mL/min/kg
IC50 [2, 3]: 0.479 µM

Compound: Cc1c(-c2ccc(C(F)(F)F)cc2OCCC(=O)O)oc2c(Cl)cccc2c1=O [Example A034, 3-[2-(8-chloro-3-methyl-4-oxo-chromen-2-yl)-5-(trifluoromethyl)phenoxy]propanoic acid]
Clearance of Human microsome [1]: 6.15 mL/min/kg
IC50 [2, 3]: 13.4 µM

Compound: COc1cc(-c2cc(=O)c3cccc(Cl)c3o2)c(OCCC(=O)O)cc1OCC(F)(F)F [Example A041, 3-[2-(8-chloro-4-oxo-chromen-2-yl)-4-methoxy-5-(2,2,2-trifluoroethoxy)phenoxy]propanoic acid]
Clearance of Human microsome [1]: 6.15 mL/min/kg
IC50 [2, 3]: 6.06 µM

Compound: O=C(O)CCOc1cc(OC(F)(F)F)ccc1-c1cc(=O)c2ccc(C(F)(F)F)c(Cl)c2o1 [Example A042, 3-[2-[8-chloro-4-oxo-7-(trifluoromethyl)chromen-2-yl]-5-(trifluoromethoxy)phenoxy]propanoic acid]
Clearance of Human microsome [1]: 6.15 mL/min/kg
IC50 [2, 3]: 17.8 µM

Compound: O=C(O)CCOc1cc(C(F)(F)F)ccc1-c1oc2c(Cl)cccc2c(=O)c1O [Example A046, 3-[2-(8-chloro-3-hydroxy-4-oxo-chromen-2-yl)-5-(trifluoromethyl)phenoxy]propanoic acid]
Clearance of Human microsome [1]: 6.15 mL/min/kg
IC50 [2, 3]: 7.86 µM

Compound: COc1c(-c2ccc(C(F)(F)F)cc2OCCC(=O)O)oc2c(Cl)cccc2c1=O [Example A047, 3-[2-(8-chloro-3-methoxy-4-oxo-chromen-2-yl)-5-(trifluoromethyl)phenoxy]propanoic acid]
Clearance of Human microsome [1]: 6.15 mL/min/kg
IC50 [2, 3]: 1.83 µM

Compound: COc1cc(OCC(=O)O)c(-c2cc(=O)c3cccc(Cl)c3o2)cc1OC [Example A050, 2-[2-(8-chloro-4-oxo-chromen-2-yl)-4,5-dimethoxy-phenoxy]acetic acid]
Clearance of Human microsome [1]: 6.15 mL/min/kg
IC50 [2, 3]: 11.8 µM

Clearance of Human microsome [1]: 6.15 mL/min/kg
Compound: Cc1cc(-c2cc(=O)c3cccc(Cl)c3o2)c(OCC(=O)O)cc1Br [Example A073, 2-[5-bromo-2-(8-chloro-4-oxo-chromen-2-yl)-4-methyl-phenoxy]acetic acid]

Compound: CC(C)(OCCCOc1cc(C(F)(F)F)ccc1-c1cc(=O)c2cccc(Cl)c2o1)C(=O)O [Example C109, 2-[3-[2-(8-chloro-4-oxo-chromen-2-yl)-5-(trifluoromethyl)phenoxy]propoxy]-2-methyl-propanoic acid]
IC50 [2, 3]: 0.995 µM

Compound: CS(=O)(=O)NC(=O)[C@H]1C[C@H](OCCOc2cc(Br)ccc2-c2cc(=O)c3cccc(Cl)c3o2)C1 [Example C123, Trans-3-[2-[5-bromo-2-(8-chloro-4-oxo-chromen-2-yl)phenoxy]ethoxy]-N-methylsulfonyl-cyclobutanecarboxamide]
IC50 [2, 3]: 6.53 µM

Compound: CS(=O)(=O)NC(=O)C1CCC(OCCCOc2cc(C(F)(F)F)ccc2-c2cc(=O)c3cccc(Cl)c3o2)C1 (centres unmarked) [Example C124, 3-[3-[2-(8-chloro-4-oxo-chromen-2-yl)-5-(trifluoromethyl)phenoxy]propoxy]-N-methylsulfonyl-cyclopentanecarboxamide]
IC50 [2, 3]: 2.84 µM

Compound: O=C(COCCOc1cc(Br)ccc1-c1cc(=O)c2cccc(Cl)c2o1)N1CCC(O)C1 (centres unmarked) [Example C126, 2-[4-bromo-2-[2-[2-(3-hydroxypyrrolidin-1-yl)-2-oxo-ethoxy]ethoxy]phenyl]-8-chloro-chromen-4-one]
IC50 [2, 3]: 4.4 µM

Compound: O=c1cc(-c2ccccc2O)oc2cc(O)ccc12 [Example F-1, 7-hydroxy-2-(2-hydroxyphenyl)chromen-4-one, reference compound]
IC50 [2, 3]: > 50 µM

Compound: COc1ccc2oc(-c3ccccc3OC)cc(=O)c2c1 [Example F-2, 6-methoxy-2-(2-methoxyphenyl)chromen-4-one, reference compound]
IC50 [2, 3]: > 50 µM
